Data from the NIST ThermoML archive (doi:10.1021/je800908h).
± gives the expanded uncertainty stated by the source.

Test: mn = molality of the nth substance listed, in mol/kg
Details: 101 kPa, Liquid, Linear variable-path acoustic interferometer

[2H]O[2H] [water-d2] + CCCC[N+](CCCC)(CCCC)CCCC.[Br-]
speed of sound [m/s]
Details	283.15 K	298.15 K	318.15 K	338.15 K
m2 = 0.05	1366.8 ± 1.8	1414 ± 2	1451.5 ± 2	–
m2 = 0.075	1375.9 ± 3.5	1421.1 ± 1.8	1456.5 ± 1.8	1470.5 ± 1.7
m2 = 0.1	1384.4 ± 1.8	–	1461.4 ± 1.8	1474.3 ± 1.7
m2 = 0.2	1419.1 ± 1.8	1453.9 ± 1.8	1479.9 ± 1.8	1486.6 ± 1.8
m2 = 0.3	1450.2 ± 1.8	1478.2 ± 1.8	–	1498.1 ± 1.8
m2 = 0.5	1506 ± 1.8	–	1525.8 ± 1.8	1518.2 ± 1.8
m2 = 0.75	1562.5 ± 1.9	1562.4 ± 1.9	1554.8 ± 1.8	1536.6 ± 1.8
m2 = 1	1605.4 ± 1.9	1594.2 ± 1.9	1576.2 ± 1.9	1550.2 ± 1.9
m2 = 1.5	1658.6 ± 2	1634.9 ± 2	1601 ± 1.9	1563.5 ± 1.9
m2 = 2	1680.5 ± 2	1652.1 ± 2	1610 ± 2	1566.4 ± 2
m2 = 2.5	1686.3 ± 2.1	1657 ± 2.1	1611.3 ± 2	1563.7 ± 2
m2 = 3	1688.9 ± 2.1	1661.4 ± 2.1	1615.2 ± 2.1	1564 ± 2.1

[2H]O[2H] [water-d2] + C[N+](C)(C)C.[Br-]
speed of sound [m/s]
Details	283.15 K	298.15 K	318.15 K	338.15 K
m2 = 0.05	1352 ± 1.7	1403 ± 1.9	1443.9 ± 1.9	1462.3 ± 1.7
m2 = 0.075	1354.7 ± 1.7	1405.2 ± 1.7	1445.4 ± 1.7	1463.6 ± 1.8
m2 = 0.1	1357.5 ± 1.7	1407.4 ± 1.7	1447.1 ± 1.7	1465.1 ± 1.7
m2 = 0.2	1366.7 ± 2	1414.7 ± 1.7	1452.9 ± 1.7	1469.8 ± 1.9
m2 = 0.3	1376.5 ± 1.7	1422.2 ± 1.7	1458.6 ± 1.7	1474.5 ± 1.7
m2 = 0.5	1393.7 ± 1.7	1436.4 ± 1.7	1469.8 ± 1.7	1484.1 ± 1.7
m2 = 0.75	1414.4 ± 1.7	1453.8 ± 1.7	1483.7 ± 1.7	1495.7 ± 1.7
m2 = 1	1433.4 ± 1.7	1470.2 ± 1.7	–	1506.9 ± 1.8
m2 = 1.5	1469.8 ± 1.7	1500.5 ± 1.8	1521.2 ± 1.8	1527.4 ± 1.8
m2 = 2	1502.4 ± 1.8	1528 ± 1.8	1543.6 ± 1.8	1546.4 ± 1.8
m2 = 2.5	1532.1 ± 1.8	1552.9 ± 1.8	1564.3 ± 1.8	1564.2 ± 1.8
m2 = 3	1560.4 ± 1.8	1575.5 ± 1.8	1583.5 ± 1.8	1580.8 ± 1.8
